Tests used:
C. albicans biofilms = experiment: Biofilm checkerboard assay (CTB metabolic activity, BEC-2, FICI); settings: for BEC-2 MCZ: 24 h
[1] = cited from earlier work
[2] = tested on: C. albicans biofilm cells; experiment: Kinetic PI (propidium iodide) fluorescence assay on biofilms; type: cell-based, Candida albicans
[3] = tested on: C. glabrata biofilms (strain BG2); experiment: Biofilm checkerboard assay with CFU determination (Example 9); type: cell-based, Candida glabrata; settings: on its own or in combination with DB
Experimental: After 1 h of adhesion at 37° C., the medium was aspirated and biofilms were washed with 100 μL PBS to remove non-adherent cells, followed by the addition of 100 μL RPMI 1640 medium. Biofilms were allowed to grow for 24 h at 37° C. To determine possible potentiation of MCZ by DB, a checkerboard assay was used. […] After 38 h of incubation at 37° C., CFU determination was performed on treated biofilms. […] Serial dilutions (10^−2, 10^−3 and 10^−4) were plated on YPD agar plates, followed by an incubation period of 24 h at 37° C. and subsequent colony counting.

[4] = tested on: planktonic C. glabrata cultures (strain BG2); experiment: Checkerboard assay with determination of the MIC; type: cell-based, Candida glabrata
Experimental: A C. glabrata BG2 overnight culture, grown in YPD, was diluted to an optical density of 0.1 (approximately 10^6 cells/mL) in RPMI medium, preheated at 37° C. 90 μL of the cell suspension was added to the wells of a 96 well plate, containing 10 μL of a combination of MCZ and DB, two fold diluted across rows and columns respectively (DMSO background 2%). After both 24 h and 48 h of incubation at 37° C., absorbance was measured at 490 nm by a multimode reader (Synergy Mx multi-mode microplate reader, BioTek, USA).
Domiphen bromide (DB) is a potentiator of miconazole against C. glabrata biofilms. […] MIC values were determined using Graphpad Prism 6 (table 8).

[5] = single treatment at 50 μM, 5-10 h after treatment

In the case of Clc1ccc(COC(Cn2ccnc2)c2ccc(Cl)cc2Cl)c(Cl)c1 (racemic) [Miconazole, (RS)-1-[2-(2,4-dichlorofenyl)-2-[(2,4-dichlorofenyl)methoxy]ethyl] imidazole], the “BEC-2 MCZ” value (C. albicans biofilms; 0 μM DB (MCZ alone)) is reported as 230 µM, the “BEC-2 MCZ” value (C. albicans biofilms; in combination with 1.56 μM DB) is reported as 150 µM and the “BEC-2 MCZ” value (C. albicans biofilms; in combination with 3.125 μM DB) is reported as 100 µM. For the same compound, the “BEC-2 MCZ” value (C. albicans biofilms; in combination with 6.25 μM DB) was 55 µM, the “BEC-2 MCZ” value (C. albicans biofilms; in combination with 12.5 μM DB) was 30 µM and the “BEC-2 MCZ” value (C. albicans biofilms; in combination with 25 μM DB) was 1 µM. The solubility in water [1] was “insoluble in water” and the PI fluorescence ([2]; single treatment 150 μM, after 16 h of treatment) was “slight increase”.

In the case of CC[C@@H]([C@H](C)O)n1ncn(-c2ccc(N3CCN(c4ccc(OC[C@@H]5CO[C@@](Cn6cncn6)(c6ccc(F)cc6F)C5)cc4)CC3)cc2)c1=O [Posaconazole], the “antibiofilm activity against C. glabrata biofilms” value [3] is reported as “no significant antibiofilm activity”.

In the case of CCCCCCCCCCCC[N+](C)(C)CCOc1ccccc1 [domiphen bromide, N,N-dimetyl-N-(2-phenoxyetyl)-, bromide], the solubility in water [1] is given as “highly soluble in water” and the PI fluorescence [2, 5] is given as “slight increase”.

For Clc1ccc(COC(Cn2ccnc2)c2ccc(Cl)cc2Cl)c(Cl)c1 (stereo not drawn) [miconazole nitrate], the solubility in water [1] is listed as “insoluble in water”.

For CC[N+](CC)(CC)CC.[Br-] [tetraethylammonium bromide], the “FICI with Miconazole” value (C. albicans biofilms; quaternary ammonium compound combined with Miconazole) was over 0.5.

In the case of benzalkonium chloride, the PI fluorescence [2, 5] is reported as “slight increase” and the “potentiation of MCZ against planktonic C. glabrata cultures” value [4] is reported as “could not potentiate MCZ”.

— patent publication US11793790B2, “Compositions against Candida infections” (Katholieke Universiteit Leuven, priority 2017, dated 2023)
